Source: ChEMBL document CHEMBL5321279 (J Med Chem, 2023)
Activity calls are given as the source filed them. The rule behind the calls is not given here.

Legend:
[1] = AUC(0 to 24 hrs) in African green monkey infected with SARS-CoV-2 assessed as prodrug conversion by measuring (2R,3R,4S,5R)-2-(4-aminopyrrolo[2,1-f][1,2,4]triazin-7-yl)-3,4-dihydroxy-5-(hydroxymethyl)tetrahydrofuran-2-carbonitrile at 10 mg/kg, iv qd administered for day 1 followed by 5 mg/kg administration measured after 6 days by LC-MS/MS analysis; type: ADME, organism-based, Severe acute respiratory syndrome coronavirus 2; design: dose 10 mg/kg, time 6 day, route iv; conditions: in vivo
[2] = (§1) Cytotoxicity against human HepG2 cells assessed as reduction in cell growth measured after 5 days by CellTiter-Glo assay; type: toxicity, cell-based; conditions: HepG2 cells, time 5 day
[3] = AUC(0 to 24 hrs) in rat at 5 mg/kg, po measured upto 24 hrs by LC-MS/MS analysis; type: ADME, organism-based; design: dose 5 mg/kg, time < 24 hrs, route po; conditions: in vivo
[4] = AUC(0 to 24 hrs) in African green monkey infected with SARS-CoV-2 assessed as prodrug conversion by measuring (2R,3R,4S,5R)-2-(4-aminopyrrolo[2,1-f][1,2,4]triazin-7-yl)-3,4-dihydroxy-5-(hydroxymethyl)tetrahydrofuran-2-carbonitrile at 7.5 mg/kg, iv qd measured after 6 days by LC-MS/MS analysis; type: ADME, organism-based, Severe acute respiratory syndrome coronavirus 2; design: dose 7.5 mg/kg, time 6 day, route iv; conditions: in vivo
[5] = Stability of compound in rat gastrointestinal S9 fraction assessed as half life at pH 7.4 measured upto 120 mins by LC-MS/MS analysis; type: ADME, subcellular, Gastrointestinal tract
[6] = AUC(0 to 24 hrs) in African green monkey assessed as prodrug conversion by measuring (2R,3R,4S,5R)-2-(4-aminopyrrolo[2,1-f][1,2,4]triazin-7-yl)-3,4-dihydroxy-5-(hydroxymethyl)tetrahydrofuran-2-carbonitrile at 86.5 mg/kg, po measured upto 24 hrs by LC-MS/MS analysis; type: ADME, organism-based; design: dose 86.5 mg/kg, time < 24 hrs, route po; conditions: chlorocebus sabaeus, in vivo
[7] = Stability of compound in dog plasma assessed as half life measured upto 4 hrs by LC-MS/MS analysis; type: ADME, cell-free, Canis lupus familiaris
CES1b = experiment: Stability of compound assessed as human recombinant CES1b-mediated compound hydrolysis by measuring half life at pH 7.4 using oseltamivir as substrate measured upto 120 mins by LC-MS/MS analysis; type: ADME; conditions: pH 7.4, probe oseltamivir
[8] = Prodrug conversion in SARS-CoV-2 infected in African green monkey assessed as (2R,3R,4S,5R)-2-(4-aminopyrrolo[2,1-f][1,2,4]triazin-7-yl)-3,4-dihydroxy-5-(hydroxymethyl)tetrahydrofuran-2-carbonitrile mediated log10 reduction of genomic RNA at 60 mg/kg, po qd measured after 6 days by RT-qPCR analysis; type: ADME, organism-based, Severe acute respiratory syndrome coronavirus 2; conditions: in vivo, time 6 day
SARS-CoV-2 [9] = experiment: Antiviral activity against SARS-CoV-2 infected in African green monkey assessed as reduction in genomic RNA load in BALF at 60 mg/kg, po qd administered for 1 day starting from 8 hrs post infection by RT-qPCR analysis; type: functional, organism-based; conditions: Severe acute respiratory syndrome coronavirus 2
[10] = Oral bioavailability in cynomolgus monkey assessed as prodrug conversion by measuring (2R,3R,4S,5R)-2-(4-aminopyrrolo[2,1-f][1,2,4]triazin-7-yl)-3,4-dihydroxy-5-(hydroxymethyl)tetrahydrofuran-2-carbonitrile at 11.7 mg/kg measured upto 24 hrs by LC-MS/MS analysis; type: ADME, organism-based, Macaca fascicularis; conditions: in vivo
[11] = AUC(0 to 24 hrs) in African green monkey at 60 mg/kg, po measured upto 24 hrs by LC-MS/MS analysis; type: ADME, organism-based; design: dose 60 mg/kg, time < 24 hrs, route po; conditions: chlorocebus sabaeus, in vivo
[12] = Half life in dog assessed as prodrug conversion by measuring (2R,3R,4S,5R)-2-(4-aminopyrrolo[2,1-f][1,2,4]triazin-7-yl)-3,4-dihydroxy-5-(hydroxymethyl)tetrahydrofuran-2-carbonitrile at […], po measured upto 24 hrs by LC-MS/MS analysis; type: ADME, organism-based, Canis lupus familiaris; conditions: in vivo
[13] = Half life in African green monkey assessed as prodrug conversion by measuring (2R,3R,4S,5R)-2-(4-aminopyrrolo[2,1-f][1,2,4]triazin-7-yl)-3,4-dihydroxy-5-(hydroxymethyl)tetrahydrofuran-2-carbonitrile at 86.5 mg/kg, po measured upto 24 hrs by LC-MS/MS analysis; type: ADME, organism-based; conditions: chlorocebus sabaeus, in vivo
[14] = Stability of compound in human gastrointestinal S9 fraction assessed as half life at pH 7.4 measured upto 120 mins by LC-MS/MS analysis; type: ADME, subcellular, Gastrointestinal tract
[15] = Cmax in dog assessed as prodrug conversion by measuring (2R,3R,4S,5R)-2-(4-aminopyrrolo[2,1-f][1,2,4]triazin-7-yl)-3,4-dihydroxy-5-(hydroxymethyl)tetrahydrofuran-2-carbonitrile at […], po measured upto 24 hrs by LC-MS/MS analysis; type: ADME, organism-based, Canis lupus familiaris; conditions: in vivo
[16] = AUC(0 to 24 hrs) in dog at […], po measured upto 24 hrs by LC-MS/MS analysis; type: ADME, organism-based, Canis lupus familiaris; conditions: in vivo
[17] = Cmax in African green monkey assessed as prodrug conversion by measuring (2R,3R,4S,5R)-2-(4-aminopyrrolo[2,1-f][1,2,4]triazin-7-yl)-3,4-dihydroxy-5-(hydroxymethyl)tetrahydrofuran-2-carbonitrile at […], po measured upto 24 hrs by LC-MS/MS analysis; type: ADME, organism-based; conditions: chlorocebus sabaeus, in vivo
[18] = Cmax in cynomolgus monkey assessed as prodrug conversion by measuring (2R,3R,4S,5R)-2-(4-aminopyrrolo[2,1-f][1,2,4]triazin-7-yl)-3,4-dihydroxy-5-(hydroxymethyl)tetrahydrofuran-2-carbonitrile at 11.7 mg/kg, po measured upto 24 hrs by LC-MS/MS analysis; type: ADME, organism-based, Macaca fascicularis; design: time < 24 hrs, dose 11.7 mg/kg, route po; conditions: in vivo
[19] = Half life in cynomolgus monkey assessed as prodrug conversion by measuring (2R,3R,4S,5R)-2-(4-aminopyrrolo[2,1-f][1,2,4]triazin-7-yl)-3,4-dihydroxy-5-(hydroxymethyl)tetrahydrofuran-2-carbonitrile at 11.7 mg/kg, po measured upto 24 hrs by LC-MS/MS analysis; type: ADME, organism-based, Macaca fascicularis; conditions: in vivo
[20] = Half life in African green monkey assessed as prodrug conversion by measuring (2R,3R,4S,5R)-2-(4-aminopyrrolo[2,1-f][1,2,4]triazin-7-yl)-3,4-dihydroxy-5-(hydroxymethyl)tetrahydrofuran-2-carbonitrile at […], po measured upto 24 hrs by LC-MS/MS analysis; type: ADME, organism-based; conditions: chlorocebus sabaeus, in vivo
[21] = Oral bioavailability in rat assessed as prodrug conversion by measuring (2R,3R,4S,5R)-2-(4-aminopyrrolo[2,1-f][1,2,4]triazin-7-yl)-3,4-dihydroxy-5-(hydroxymethyl)tetrahydrofuran-2-carbonitrile at 6 mg/kg measured upto 24 hrs by LC-MS/MS analysis; type: ADME, organism-based; conditions: in vivo
[22] = AUC(0 to 24 hrs) in rat assessed as prodrug conversion by measuring (2R,3R,4S,5R)-2-(4-aminopyrrolo[2,1-f][1,2,4]triazin-7-yl)-3,4-dihydroxy-5-(hydroxymethyl)tetrahydrofuran-2-carbonitrile at 6 mg/kg, po measured upto 24 hrs by LC-MS/MS analysis; type: ADME, organism-based; design: time < 24 hrs, dose 6 mg/kg, route po; conditions: in vivo
SARS-CoV-2 [23] = experiment: Antiviral activity against SARS-CoV-2 infected in African green monkey assessed as reduction in viral titer in nasal swabs at 60 to 120 mg/kg, po qd administered for 4 days starting from 8 hrs post infection by PFA assay; type: functional, organism-based; conditions: Severe acute respiratory syndrome coronavirus 2, dose lower 60.0 mg/kg, dose upper […], time 4.0 day
HepG2 = experiment: as §1; type: toxicity, cell-based; conditions: hepg2, 120 h, time 5 day
[24] = AUC(0 to 24 hrs) in African green monkey infected with SARS-CoV-2 assessed as prodrug conversion by measuring (2R,3R,4S,5R)-2-(4-aminopyrrolo[2,1-f][1,2,4]triazin-7-yl)-3,4-dihydroxy-5-(hydroxymethyl)tetrahydrofuran-2-carbonitrile at 60 mg/kg, po qd measured after 6 days by LC-MS/MS analysis; type: ADME, organism-based, Severe acute respiratory syndrome coronavirus 2; design: time 6 day, dose 60 mg/kg, route po; conditions: in vivo

With `CCC(CC)COC(=O)[C@H](C)N[P@](=O)(OC[C@H]1O[C@@](C#N)(c2ccc3c(N)ncnn23)[C@H](O)[C@@H]1O)Oc1ccccc1` the AUC [1] was 7.9 µM·h and the CC50 at 120 h [2] was 11.1 µM.
With `N#C[C@@]1(c2ccc3c(N)ncnn23)O[C@H](CO)[C@@H](O)[C@H]1O` [GS-441524] the AUC [3] was 3.97 µM·h and the AUC [4] was ~ 55 uM.hr.
`CC(C)C(=O)OC[C@H]1O[C@@](C#N)(c2ccc3c(N)ncnn23)[C@H](O)[C@@H]1O` [OBELDESIVIR] gave a half-life [5] of over 2 min, an AUC [6] of 136 µM·h and a half-life [7] of 6.87 h. For the same compound, the half-life (CES1b) was 4 min, the “log(activity)” value [8] was -1.41 and the Activity (SARS-CoV-2 [9]) was “inactive”. The F [10] was 37%, the AUC [11] was 0.03 µM·h and the t1/2 [12] was 3.62 h. It also gave a t1/2 [13] of 2.98 h, a half-life [14] of under 2 min and a Cmax [15] of 57.8 µM. It also gave an AUC [16] of 0.4 µM·h, a Cmax [17] of 6.81 µM and a Cmax [18] of 7.57 µM. The t1/2 [19] was 2.62 h, the t1/2 [20] was 3.19 h and the F [21] was 63%. For the same compound, the AUC [22] was 7.57 µM·h, the Activity (SARS-CoV-2 [23]) was “Active” and the CC50 (HepG2) was 71 µM. It also gave an AUC [24] of 111 µM·h.
